Results: the NIST ThermoML archive (doi:10.1021/acs.jced.7b00335)

Assay: xn = mol fraction of the nth substance listed
Settings: 100 kPa, Liquid; for viscosity: Concentric cylinders viscometry; for mass density: Vibrating tube method

O=Cc1ccccc1 [benzaldehyde] + CCC(C)O
Settings	mass density [kg/m3]	viscosity [mPa·s]
293.15 K, x1 = 0.0813	824.7	3.08
293.15 K, x1 = 0.1623	842.8	2.62
293.15 K, x1 = 0.2401	860.9	2.3
293.15 K, x1 = 0.3517	886.9	1.97
293.15 K, x1 = 0.4404	908.4	1.791
293.15 K, x1 = 0.5612	938.1	1.648
293.15 K, x1 = 0.6519	961	1.576
293.15 K, x1 = 0.7423	984.4	1.528
293.15 K, x1 = 0.8511	1012.1	1.506
293.15 K, x1 = 0.94	1032.5	1.511
293.15 K, x1 = 1	1046.3	1.52
298.15 K, x1 = 0.0813	821.2	2.65
298.15 K, x1 = 0.1623	839.5	2.31
298.15 K, x1 = 0.2401	857.3	2.027
298.15 K, x1 = 0.3517	883.2	1.75
298.15 K, x1 = 0.4404	905.3	1.61
298.15 K, x1 = 0.5612	934.6	1.487
298.15 K, x1 = 0.6519	957.6	1.426
298.15 K, x1 = 0.7423	980.2	1.39
298.15 K, x1 = 0.8511	1007.3	1.38
298.15 K, x1 = 0.94	1028.6	1.39
298.15 K, x1 = 1	1041.7	1.41
303.15 K, x1 = 0.0813	816.3	2.23
303.15 K, x1 = 0.1623	834.1	1.984
303.15 K, x1 = 0.2401	852.4	1.78
303.15 K, x1 = 0.3517	878.1	1.561
303.15 K, x1 = 0.4404	899.7	1.438
303.15 K, x1 = 0.5612	929.2	1.322
303.15 K, x1 = 0.6519	952.1	1.279
303.15 K, x1 = 0.7423	975.7	1.255
303.15 K, x1 = 0.8511	1002.1	1.255
303.15 K, x1 = 0.94	1023.2	1.277
303.15 K, x1 = 1	1037.1	1.31
308.15 K, x1 = 0.0813	812.3	1.897
308.15 K, x1 = 0.1623	829.9	1.7
308.15 K, x1 = 0.2401	848.1	1.55
308.15 K, x1 = 0.3517	873.9	1.383
308.15 K, x1 = 0.4404	895.3	1.284
308.15 K, x1 = 0.5612	924.7	1.194
308.15 K, x1 = 0.6519	947.6	1.156
308.15 K, x1 = 0.7423	971.1	1.139
308.15 K, x1 = 0.8511	997	1.149
308.15 K, x1 = 0.94	1019	1.182
308.15 K, x1 = 1	1032.4	1.22
313.15 K, x1 = 0.0813	807.8	1.636
313.15 K, x1 = 0.1623	825.5	1.49
313.15 K, x1 = 0.2401	843.7	1.366
313.15 K, x1 = 0.3517	869.3	1.23
313.15 K, x1 = 0.4404	890.8	1.146
313.15 K, x1 = 0.5612	920.3	1.079
313.15 K, x1 = 0.6519	944.4	1.05
313.15 K, x1 = 0.7423	966.7	1.038
313.15 K, x1 = 0.8511	993.4	1.057
313.15 K, x1 = 0.94	1014.1	1.1
313.15 K, x1 = 1	1027.9	1.15
318.15 K, x1 = 0.0813	803	1.388
318.15 K, x1 = 0.1623	820.8	1.265
318.15 K, x1 = 0.2401	839	1.172
318.15 K, x1 = 0.3517	864.6	1.068
318.15 K, x1 = 0.4404	886.1	1.01
318.15 K, x1 = 0.5612	915.7	0.966
318.15 K, x1 = 0.6519	940	0.95
318.15 K, x1 = 0.7423	962.1	0.948
318.15 K, x1 = 0.8511	987.7	0.979
318.15 K, x1 = 0.94	1009.3	1.026
318.15 K, x1 = 1	1023.4	1.09
323.15 K, x1 = 0.0813	798.9	1.215
323.15 K, x1 = 0.1623	816.4	1.128
323.15 K, x1 = 0.2401	834.6	1.056
323.15 K, x1 = 0.3517	860	0.977
323.15 K, x1 = 0.4404	881.5	0.932
323.15 K, x1 = 0.5612	911	0.895
323.15 K, x1 = 0.6519	933.9	0.882
323.15 K, x1 = 0.7423	956	0.887
323.15 K, x1 = 0.8511	982.1	0.913
323.15 K, x1 = 0.94	1003.9	0.962
323.15 K, x1 = 1	1019.1	1.03
